Test results taken from PubChem BioAssay (NCI).
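Results reflect a 48-hour exposure of cells in 96-well plates to compound at five concentrations. TGI denotes the concentration required for complete inhibition of growth.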

Tests used:
Test in all cases: DTP human tumour cell line panel, 48 h
[1] = tested on: HS 578T breast
[2] = tested on: DU-145 prostate
[3] = tested on: 786-0 renal
[4] = tested on: COLO 205 colon
[5] = tested on: MDA-N
[6] = tested on: TK-10 renal
[7] = tested on: IGROV1 ovarian
[8] = tested on: NCI-H522 lung
[9] = tested on: SW-620 colon
[10] = tested on: A498 renal
[11] = tested on: PC-3 prostate
[12] = tested on: OVCAR-4 ovarian
[13] = tested on: MDA-MB-231 breast
[14] = tested on: UACC-62 melanoma
[15] = tested on: ACHN renal
[16] = tested on: U251 CNS
[17] = tested on: KM12 colon
[18] = tested on: NCI-H460 lung
[19] = tested on: SR leukemia
[20] = tested on: HOP-92 NSCLC
[21] = tested on: SF-295 CNS
[22] = tested on: UACC-257 melanoma
[23] = tested on: SK-MEL-5 melanoma
[24] = tested on: MOLT-4 leukemia
[25] = tested on: K-562 leukemia
[26] = tested on: HT29 colon
[27] = tested on: RPMI-8226 leukemia
[28] = tested on: SNB-19 CNS
[29] = tested on: HCC-2998 colon
[30] = tested on: SK-OV-3 ovarian
[31] = tested on: MCF7 breast
[32] = tested on: BT-549 breast
[33] = tested on: A549 NSCLC
[34] = tested on: HCT-15 colon
[35] = tested on: HOP-62 NSCLC
[36] = tested on: MDA-MB-435
[37] = tested on: SF-539 CNS
[38] = tested on: T-47D breast
[39] = tested on: HL-60(TB) leukemia
[40] = tested on: CCRF-CEM leukemia
[41] = tested on: SK-MEL-28 melanoma
[42] = tested on: NCI/ADR-RES ovarian
[43] = tested on: RXF 393 renal
[44] = tested on: UO-31 renal
[45] = tested on: OVCAR-8 ovarian
[46] = tested on: SN12C renal
[47] = tested on: OVCAR-3 ovarian
[48] = tested on: LOX IMVI melanoma
[49] = tested on: OVCAR-5 ovarian
[50] = tested on: SNB-75 CNS
[51] = tested on: MALME-3M melanoma
[52] = tested on: EKVX NSCLC
[53] = tested on: SF-268 CNS
[54] = tested on: CAKI-1 renal
[55] = tested on: HCT-116 colon
[56] = tested on: NCI-H23 lung
[57] = tested on: SK-MEL-2 melanoma
[58] = tested on: NCI-H226 lung

Measured: TGI

Cc1cccc2c1C(=O)C(C1OC(=O)c3ccccc31)C2 (stereo not drawn)
> 100 µM: all assays above
